# In US20180009764A1, “METHOD FOR TREATING MACROPHAGE MIGRATION INHIBITORY FACTOR (MIF)-IMPLICATED DISEASES AND CONDITIONS WITH IODO PYRIMIDINE DERIVATIVES” (UNIVERSITY OF LOUISVILLE RESEARCH FOUNDATION, INC., priority 2009, published 2018):
# Experiments:
# Caco-2 monolayers = experiment: Caco-2 cell permeability and transport; assay type: in vitro ADME; design: Caco-2 Permeability Papp B-A / Caco-2 Permeability Papp A-B: unit not given here; details: for Caco-2 Permeability Papp B-A: basolateral-to-apical
# Experimental: (§1) Cell permeability and transport mechanisms in Caco-2 and MDR1-MDCK monolayers experiments were performed in triplicate in the apical-to-basolateral and basolateral-to-apical direction using […]® wells containing either Caco-2 or MDR1-MDCK monolayers. A modified Hanks buffer pH 7.4 was used in both reservoir and receiver wells with the addition of 1% BSA in the receiver side. Confluent monolayers were used and their integrity was verified using reference compounds (Atenolol as a low permeability reference compound and Propanolol as a high permeability reference compound). A sample in the basolateral and apical sides was taken after 2 hours and the concentration measured by LC/MS-MS.
# MDR1-MDCK monolayers = experiment: MDR1-MDCK cell permeability and transport; assay type: in vitro ADME
# Experimental: as §1
# [1] = Microsomal stability in human liver microsomes; assay type: in vitro ADME; details: both, human, microsomes, pH 7.4
# Experimental: Stability in human liver microsomes was tested over […] at 37° C. using pooled mixed gender human liver microsomes. Liver microsomes were prepared at 1.0 mg/ml of microsomal protein in a 100 mM potassium phosphate pH 7.4 buffer with 1 mM NADPH. The media was incubated at 37° C. with the compound in solution in DMSO. The concentration of the compound was followed by LC/MS-MS as a function of time. Samples were assayed at t=0, 30, 60 and 120 minutes. Testosterone was used as a positive control. The same experiment was performed with mouse liver microsomes instead of human liver microsomes.
# in vitro = in vitro ADME; details: human, plasma, Human Plasma Protein Binding % Bound
# Excerpt: Plasma protein binding was ascertained using dialysis equilibrium methods known in the art.
# Du 145 = experiment: Inhibition of tumor cells proliferation (CellTiter Glo); assay type: cell-based; details: Homo sapiens, 72 hours
# Experimental: Inhibition of the proliferation of tumor cells was investigated in vitro in several tumor cell lines. Cells of the desired tumor cell line were plated at 2×10^5 cells/ml in 96 well plates. Twice the indicated concentrations of the compounds of the invention were added to cells the following day in an equal volume of media. 72 hours later, cells were lysed and subjected to ATP determination using the CellTiter Glo-Luminescent Cell Viability Assay kit (Promega, Madison, Wis.). Experiments were done in triplicate. Results for the inhibition of cells proliferation are reported as IC50 (the concentration leading to a 50% inhibition of proliferation of the cell population) and are listed in Table 6. FIGS. 3 and 4 show bar graphs comparing the IC50s of specific embodiments of compounds of the invention across multiple tumor cell lines.
# MIF = target: T1, MIF (Homo sapiens, UniProt P14174); experiment: MIF cell lysate enzymatic inhibition; assay type: biochemical; details: cell lysates
# T1 construct: the enzymatic activity of MIF present in cell lysates; endogenous in cells
# T1 sequence (P14174 2-115 limits assumed): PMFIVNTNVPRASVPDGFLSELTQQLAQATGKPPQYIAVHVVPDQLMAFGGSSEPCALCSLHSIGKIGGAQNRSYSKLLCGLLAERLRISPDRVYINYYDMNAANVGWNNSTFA
# Experimental: Normal or transformed cell lysates can be used to determine the concentration inhibiting the enzymatic activity of MIF present in cell lysates. Cells are cultured in the appropriate media to the required number of cells, collected, and lysed. Compounds to be characterized are solubilized in DMSO and serial dilutions are performed in order to obtain a range of concentrations including complete and no quantifiable inhibition.
# [2] = test system: Chick Chorioallantoic Membrane (CAM); experiment: Chick chorioallantoic membrane (CAM) assay, o ring; assay type: in vivo; details: for Blood Vessel Density: o ring
# Experimental: (§2) 8 groups with 10 embryos in each group were used in the experiment described below. Fresh fertile eggs were incubated for 3 days in a standard egg incubator at 37° C. for 3 days. On Day 3, eggs were cracked under sterile conditions and embryos were placed into 20×100 mm plastic plates and cultivated at 37° C. in an embryo incubator with a water reservoir on the bottom shelf. Air was continuously bubbled into the water reservoir using a small pump so that the humidity in the incubator is kept constant. On Day 6, a sterile silicon “o” ring was placed on each CAM and test compound dissolved in 0.5% methylcellulose was placed into each “o” ring in a sterile hood. Paclitaxel was used as a positive control. Embryos were returned to the incubator after addition of test material. Control embryos received 10 μL of vehicle alone. On Day 8, embryos were removed from the incubator and kept at room temperature while blood vessel density were determined under each “o” ring using an image capturing system at a magnification of 160×. The blood vessel density was measured using an angiogenesis scoring system in that arithmetic numbers 0 to 5 (or exponential numbers 1 to 32) are used to indicate number of blood vessels present at the treatment sites on the CAM. Number 5 represents the highest density and 0 represents no angiogenesis. The percent of inhibition at each dosing site was calculated using the score recorded for that site divided by the mean score obtained from the appropriate control samples for each individual experiment. The percent of inhibition for each dose of a given compound was calculated by pooling all results obtained for that dose from 8-10 embryos.
# [3] = Pharmacokinetics parameters in rats; assay type: in vivo; details: rat, plasma
# Experimental: The pharmacokinetic parameters of several compounds were investigated in rodents. Both oral and iv administration were investigated in rats. Blood samples were collected over time; plasma was analyzed using an LC/MS-MS method. Pharmacokinetic parameters were calculated using Win-NonLin. Terminal plasma half-lives were 7.10 hr for ACT-MIF-001, 1.66 hr for ACT-MIF-002, and 1.50 hr for ACT-MIF-003. […] The volume of distribution values were 72666 mL/kg for ACT-MIF-001, 2118 mL/kg for ACT-MIF-002, and 1926 mL/kg for ACT-MIF-003.
# [4] = Caco-2 cell permeability and transport; assay type: in vitro ADME; design: Caco-2 Permeability Papp B-A / Caco-2 Permeability Papp A-B: unit not given here; details: human, Caco-2, pH 7.4
# Experimental: as §1
# LOX-IMV1 tumor cell line = experiment: Inhibition of cell migration (Oris Cell Migration Assay); assay type: cell-based; details: 72 hrs, even at low concentrations (0.03 μM), FIG. 7
# Experimental: The LOX-IMV1 tumor cell line was used to determine the inhibition of cell migration using the Oris Cell Migration Assay kit (Promega, Mich.). Briefly, adherent cells were seeded into each well of the kit according to kit instructions. Concentrations of cells in the migration zone were determined to calculate IC50 values. Prior to the migration assay, cell proliferation IC50s were determined to differentiate between inhibition of proliferation and migration. […] A slightly modified method was also used to determine the inhibition of invasion.
# [5] = test system: Chick Chorioallantoic Membrane (CAM); experiment: CAM assay with matrigel plugs; assay type: in vivo
# Experimental: as §2
# Another experiment was performed using a protocol similar to the one described above but using matrigel plugs instead of o ring to deliver the test material to the CAM. Results are summarized in Table 9 below and show a statistically significant inhibition of angiogenesis at the high concentrations of test material.
# p53 = p53 up regulation, p53 luciferase assay; assay type: cell-based; details: 10 μM; FIG. 5
# Experimental: The up regulation of p53 was determined using a commercially available p53 luciferase assay kit. 1×10^5 cells/ml were plated in a 24 well plate and allowed to adhere overnight. MIF antagonists were added to the cells at the indicated concentrations for 16 hours and transiently co-transfected with 0.125 μg/well of p53-responsive luciferase promoter plasmid (Promega, Madison, Wis.) together with 0.0125 μg/well Renilla pRL-null plasmid (Promega) using Lipofectamine (Invitrogen) transfection reagent. After 24 hrs, Firefly and Renilla luciferase activities were measured by the Dual Luciferase Reporter Assay System (Promega, Madison, Wis.) on a TD-20/20 luminometer (Turner Designs).
Compound,Caco-2 Permeability Class (Caco-2 monolayers),Metabolic Stability in Human Microsomes % Remaining ([1]; 0 h) [%],Metabolic Stability in Human Microsomes % Remaining ([1]; 1 h) [%],IC50 (Du 145) [nM],IC50 (MIF) [nM],efflux ratio at 2 h [4],further results
"COc1ccc(-c2cc(I)ncn2)c(F)c1F [ACT-MIF-001, 4-Iodo-6-(2,3-difluoro-4-methoxyphenyl)pyrimidine]",Low,100,<2,< 10000,37,–,"Caco-2 Permeability Papp A-B (Caco-2 monolayers; apical-to-basolateral, pH 7.4, 2 hours): <0.1; Caco-2 Permeability Papp B-A (Caco-2 monolayers; pH 7.4, 2 hours): <0.1; Brain penetration classification (MDR1-MDCK monolayers): Low; P-gp Substrate (MDR1-MDCK monolayers): No; Efflux (MDR1-MDCK monolayers; class in words): Low; fraction unbound (in vitro): 0.017; Blood Vessel Density ([2]; 0.3 nM per CAM): 10.5 ± 3.4; Blood Vessel Density ([2]; 3 nM per CAM): 4.1 ± 0.8; Blood Vessel Density ([2]; 30 nM per CAM): 1.8 ± 0.3; Anti-angiogenic properties ([2]; CAM assay, in words): high anti-angiogenic properties; Vd ([3]; intravenous, read-out: Volume of distribution): 72.7 L/kg; clearance ([3]; iv, after i.v. administration): 763 mL/min/kg; half-life ([3]; read-out: Terminal plasma half-life (converted)): 7.1 h"
"Ic1cc(-c2cccnc2)ncn1 [ACT-MIF-006, 4-Iodo-6-(pyridin-3-yl)pyrimidine]",High,100,82,36700,250,1.4,Inhibition of cell migration (LOX-IMV1 tumor cell line): significant inhibition of migration; Blood Vessel Counts ([5]; 0.3 nM per CAM): 38.8 ± 3.5; Blood Vessel Counts ([5]; 3 nM per CAM): 35.8 ± 5.4; Blood Vessel Counts ([5]; 30 nM per CAM): 33.5 ± 1.7
"Fc1ncccc1-c1cc(I)ncn1 [ACT-MIF-011, 4-Iodo-6-(2-fluoropyridin-3-yl)pyrimidine]",High,–,–,–,–,0.6,–
"Fc1ccc(-c2cc(I)ncn2)c(F)c1 [ACT-MIF-017, 4-Iodo-6-(2,4-difluorophenyl)pyrimidine]",–,100,0,< 10000,190,–,–
"CC(=O)Nc1cccc(-c2cc(I)ncn2)c1 [ACT-MIF-021, 4-Iodo-6-(3-acetylaminophenyl)pyrimidine]",–,100,73,–,570,–,–
"Ic1cc(-c2ccsc2)ncn1 [ACT-MIF-022, 4-Iodo-6-(thiophen-3-yl)pyrimidine]",–,–,–,< 40000,–,–,–
"Ic1cc(-c2cncc3ccccc23)ncn1 [ACT-MIF-025, 4-Iodo-6-(isoquinolin-4-yl)pyrimidine]",Low,–,–,–,–,1.5,–
"Ic1cc(-c2cccs2)ncn1 [ACT-MIF-030, 4-Iodo-6-(thiophen-2-yl)pyrimidine]",–,–,–,–,–,–,p53 regulation (p53): implicated in p53 regulation; Blood Vessel Counts ([5]; 0.3 nM per CAM): 35.6 ± 1.0; Blood Vessel Counts ([5]; 3 nM per CAM): 32.7 ± 3.2; Blood Vessel Counts ([5]; 30 nM per CAM): 28.1 ± 2.0
CCOc1ccc(-c2cc(I)ncn2)cc1F [ACT-MIF-033],High,100,82,< 5000,115,1.1,"Caco-2 Permeability Papp B-A (Caco-2 monolayers; pH 7.4, 2 hours): 3.0; p53 regulation (p53): implicated in p53 regulation"
"NC(=O)c1ccc(-c2cc(I)ncn2)cc1 [ACT-MIF-034, 4-Iodo-6-(4-aminocarbonylphenyl)pyrimidine]",–,–,–,< 100000,270,–,p53 regulation (p53): implicated in p53 regulation
"Ic1cc(-c2ccnc3ccccc23)ncn1 [ACT-MIF-036, 4-Iodo-6-(quinolin-4-yl)pyrimidine]",–,–,–,–,230,–,–
"CC(=O)O[C@H]1C(=O)[C@@]2(C)[C@H]([C@H](OC(=O)c3ccccc3)[C@]3(O)C[C@H](OC(=O)[C@H](O)[C@@H](NC(=O)c4ccccc4)c4ccccc4)C(C)=C1C3(C)C)[C@]1(OC(C)=O)CO[C@@H]1C[C@@H]2O [Paclitaxel, reference compound]",–,–,–,–,–,–,Blood Vessel Density ([2]; 6 nM per CAM): 2.8 ± 0.7; Blood Vessel Counts ([5]; 2 nM per CAM): 15.5 ± 2.1
"CC(=O)CC(c1ccccc1)c1c(O)c2ccccc2oc1=O (centres unmarked) [Warfarin, reference compound]",–,–,–,–,–,–,fraction unbound (in vitro): 0.01
